Reference: patent US20250320190A1, “Novel Inhibitors of Leucine Carboxyl Methyltransferase-1 (LCMT-1) and Methods of Use Thereof” (Temple University-Of The Commonwealth System of Higher …, priority 2024, published 2025)
Entries after “also recorded” stand apart in the source; their conditions may differ. Like-named read-outs stand apart in the source and are kept apart here.

Experiments:
MCF7 cells = experiment: Cytotoxicity assay (calcein-AM); assay type: cell-based, human; conditions: MCF7, 48 hours
Method: HS-5, HEK-293, MCF7, MDA-MB-231 and Rosi cells were seeded in 96-well optical bottom tissue culture plates (Corning, New York) at a density of 2.5×10^3 cells/well. After 24 hours, the media were changed to media containing LB-100 (Cayman Chemical Company, Ann Arbor, Michigan) or Compound 2 at various concentrations (50-0.31 μM). Control cells were given fresh media. After 48 hours the media were aspirated and plates were washed with warmed Dulbecco's phosphate-buffered saline (DPBS) with calcium and magnesium (Sigma-Aldrich, catalog #D1283). Cells were stained with 3 μM calcein-AM (AAT Bioquest, Pleasanton, California, catalog #22002) in DPBS for 30 minutes in the dark at 37° C. Plates were immediately read with a Biotek fluorescent plate reader (excitation 485 nm, emission 520 nm). The cytotoxicity assays were performed at least three times, each time with six replicates per condition.

[1] = test system: HEK-293 cells transfected with pCMV6-LCMT1; experiment: Cytotoxicity assay in LCMT-1-transfected cells; assay type: cell-based; conditions: HEK-293 pCMV6-LCMT1 vs HEK-293; 0.78-50 μM; 48 hours
Method: A mammalian LCMT-1 plasmid expression vector was obtained from Origene (pCMV6-LCMT1, catalog #RC200018). HEK-293 cells were transfected with the plasmid using PolyJet™ transfection reagent (SignaGen Laboratories, Frederick, Maryland) according to manufacturer's directions. After 5 hours, the medium was changed. The next day, the transfected cells were seeded in 96-well optical bottom tissue culture plates for cytotoxicity assays as previously described. After 24 hours, the medium was changed to medium containing Compound 2 at various concentrations (0.78-50 μM), or fresh medium with the carrier (dimethyl sulfoxide) in the case of the control. After 48 hours, cells were stained with calcein-AM and fluorescence was measured.

[2] = Liver microsomal stability; assay type: in vitro ADME
From the text: There is no cause for concern at this stage since there are multiple strategies and reagents for enhancing aqueous solubility for animal in vivo studies (Savjani, K. T., A. K. Gajjar and J. K. Savjani, 2012, ISRN Pharm 2012: 195727.). […] While target tissue exposure is dependent on free, unbound fractions in the plasma, plasma protein binding can protect compounds from hepatic metabolism. Thus, in vivo metabolism and excretion are often determined by a balance between these two properties. In vivo half-life is a complicated property impacted upon by multiple factors and is difficult to predict. […] While these numbers are somewhat low for a drug candidate, they are acceptable for proof of concept tool molecules which can be given multiple times per day and at higher doses to saturate metabolism.

Jurkat cells = experiment: Radiosensitization assay (Ghost Dye 710 flow cytometry); assay type: cell-based, human; conditions: 10 Grays
Method: (§1) Jurkat and THP-1 cells were seeded in 6-well plates as described. After 24 hours LCMT-li was added at various concentrations as described. After 3 hours, cells were irradiated at 10 Grays. After 24 hours, cell viability was assessed with Ghost Dye™ 710 staining and flow cytometry as described.

THP-1 cells = experiment: as above; assay type: cell-based, human; conditions: 10 Grays
Method: as §1

SCC-15 cells = experiment: Cell cycle analysis (BrdU) with and without irradiation; assay type: cell-based, human; conditions: in the presence of irradiation
Method: (§2) Cells were treated with LCMT-li, radiotherapy or both as described for Annexin V assays. After 24 hours, cells were labeled with 50 μM bromodeoxyuridine (BrdU, BioGems, Westlake Village, California, catalog #5911439) for 4 hours. Cells were lifted with 0.25% trypsin, 2.21 mM ethylenediaminetetraacetic acid (EDTA) (Corning catalog #25-053-CI) after 4 hours and fixed with 70% ethanol overnight at −20° C. Cells were pelleted and permeabilized with 1 M HCl with 0.1% Triton X-100 for one minute. Cells were pelleted and cellular DNA was denatured with 2 M HCl. After neutralization with 1 M Tris, pH 8.5, cells were labeled with FITC-anti-BrdU (Biolegend, catalog #364104, 5 μL/100 μL cell suspension) and 7-aminoactinomycin-D (7-AAD, Biolegend, catalog #420404, 1 μL/100 μL cell suspension). Cells were washed with PBS with 10% FBS, and resuspended in PBS with 0.1% Triton X-100. Cells were analyzed with flow cytometry. Cell cycle analyses were performed twice with 12 replicates, 104 cells/replicate.

SCC-25 cells [3] = experiment: as above; assay type: cell-based, human
Method: as §2

UM-SCC-12 cells [4] = experiment: as above; assay type: cell-based, human; conditions: LCMT-li/irradiation combination vs irradiation alone
Method: as §2

UM-SCC-14a cells [5] = experiment: as above; assay type: cell-based, human; conditions: combination vs irradiation alone, listed as LCMT-li
Method: as §2

UM-SCC-49 cells [6] = experiment: as above; assay type: cell-based, human; conditions: combination vs irradiation alone
Method: as §2

UM-SCC-69 cells [7] = experiment: as above; assay type: cell-based, human
Method: as §2

SCC-25 cells [8] = experiment: DDR analysis (activated γ-H2AX flow cytometry); assay type: cell-based, human; conditions: LCMT-li alone vs control cells, 24 hours
Method: (§3) Cells were treated with LCMT-li, radiotherapy or both as described for Annexin V assays. After 24 hours, cells were lifted with 0.25% trypsin, 2.21 mM EDTA, stained with Ghost Dye™ 710 and fixed with formaldehyde as described. Cells were washed with PBS with 1% BSA, and permeabilized with PBS with 0.1% Triton X-100 on ice for 10 minutes. Cells were pelleted and washed twice with PBS with 0.02% Triton X-100. Cells were resuspended in PBS with 1% BSA and 0.3% Tween-20, and stained with FITC-anti-activated-γ-H2AX (Biolegend, catalog #613404). Cells were pelleted and washed with PBS with 1% BSA and 0.1% sodium azide. DDR analyses were performed twice with 12 replicates, 104 cells/replicate.

UM-SCC-12 cells [9] = experiment: DDR analysis (activated γ-H2AX flow cytometry); assay type: cell-based, human; conditions: LCMT-li alone vs control cells, 24 hours
Method: as §3

UM-SCC-14a cells [10] = experiment: DDR analysis (activated γ-H2AX flow cytometry); assay type: cell-based, human; conditions: LCMT-li alone vs control cells, 24 hours
Method: as §3

UM-SCC-49 cells [11] = experiment: DDR analysis (activated γ-H2AX flow cytometry); assay type: cell-based, human; conditions: LCMT-li alone vs control cells, 24 hours
Method: as §3

UM-SCC-69 cells [12] = experiment: DDR analysis (activated γ-H2AX flow cytometry); assay type: cell-based, human
Method: as §3

**Q.** For COC(=O)c1c(NC(=O)c2ccccc2C)sc(C(=O)Nc2cccc(C)c2)c1C [Compound 2, methyl 4-methyl-2-[(2-methylbenzoyl)amino]-5-[[(3-methylphenyl)amino]carbonyl]-3-thiophenecarboxylate], which EC50 (MCF7 cells; Homo sapiens, read-out: Log [μM] EC50 (converted)) is on record?
**A.** The EC50 was 2.24 µM.

**Q.** What about the inhibition of survival (MCF7 cells; concentrations tested 50-0.31 μM) of the same molecule?
**A.** The inhibition of survival was “Neither LB-100 nor Compound 2 significantly inhibited survival”.

**Q.** What about the “effect of LCMT-1 overexpression on survival in the presence of Compound 2” value [1] of the same molecule?
**A.** Its value is “significantly increased survival”.

**Q.** What about the half-life ([2]; human liver microsomes, read-out: Liver Microsomal Stability (t1/2) Human) of the same molecule?
**A.** The half-life was 31.1 min.

**Q.** And the half-life ([2]; mouse liver microsomes, read-out: Liver Microsomal Stability (t1/2) Mouse)?
**A.** The half-life was 17.3 min.

**Q.** And the radiosensitization (Jurkat cells)?
**A.** The radiosensitization was “did not demonstrate radiosensitization”.

**Q.** And the radiosensitization (THP-1 cells)?
**A.** Its radiosensitization is “demonstrated LCMT-li radiosensitization”.

**Q.** What about the cell cycle effect (SCC-15 cells) of the same molecule?
**A.** The cell cycle effect was “induced G0/G1 as well as G2/M phase arrest”.

**Q.** And the cell cycle effect (SCC-25 cells [3]; LCMT-li alone vs control cells)?
**A.** The cell cycle effect was “induced G2/M phase arrest”.

**Q.** And the cell cycle effect (SCC-25 cells [3]; LCMT-li/irradiation combination vs irradiation alone)?
**A.** Its cell cycle effect is “increased G2/M phase arrest”.

**Q.** What about the cell cycle effect (UM-SCC-12 cells [4]) of the same molecule?
**A.** Its cell cycle effect is “increased G2/M phase arrest”.

**Q.** And the cell cycle effect (UM-SCC-14a cells [5])?
**A.** The cell cycle effect was “increased G0/G1 arrest; also recorded: decreased G2/M phase arrest”.

**Q.** What about the cell cycle effect (UM-SCC-49 cells [6]) of the same molecule?
**A.** The cell cycle effect was “decreased G2/M phase arrest”.

**Q.** And the cell cycle effect (UM-SCC-69 cells [7]; LCMT-li alone vs control cells)?
**A.** Its cell cycle effect is “induced G0/G1 arrest”.

**Q.** And the cell cycle effect (UM-SCC-69 cells [7]; combination vs irradiation alone)?
**A.** The cell cycle effect was “decreased G2/M phase arrest”.

**Q.** What about the “activated γ-H2AX expression” value (SCC-25 cells [8]) of the same molecule?
**A.** The value was “increased activated γ-H2AX expression”.

**Q.** What about the “activated γ-H2AX expression” value (UM-SCC-12 cells [9]) of the same molecule?
**A.** Its value is “decreased activated γ-H2AX expression”.

**Q.** What about the “activated γ-H2AX expression” value (UM-SCC-14a cells [10]) of the same molecule?
**A.** Its value is “decreased activated γ-H2AX expression”.

**Q.** And the “activated γ-H2AX expression” value (UM-SCC-49 cells [11])?
**A.** The value was “decreased activated γ-H2AX expression”.

**Q.** What about the “activated γ-H2AX expression” value (UM-SCC-69 cells [12]; LCMT-li alone vs control cells, 24 hours) of the same molecule?
**A.** The value was “decreased activated γ-H2AX expression”.

**Q.** And the “DDR (activated γ-H2AX expression)” value (UM-SCC-69 cells [12]; in the presence of irradiation)?
**A.** Its value is “inhibited DDR as evidenced by persistent activated γ-H2AX expression”.
